From US10000511B2, “Small molecules for the modulation of MCL-1 and methods of modulating cell death, cell division, cell differentiation and methods of treating disorders” (priority 2010, dated 2018)

system: MCL-1ΔNΔC; assay: Competitive fluorescence polarization binding screen, FITC-MCL-1 SAHB/MCL-1ΔNΔC; settings: selectivity for MCL-1ΔNΔC over BCL-XLΔC (BCL-XL % Bound minus MCL-1 % Bound)

Row | Spec Values | Compound
1 | 79.84 | Cc1ccc(C)n1-c1cc(Cl)ccc1C(=O)O
2 | 49.28 | CN1CCN(C(c2ccccn2)c2c(-c3ccccc3)n(O)c3ccccc23)CC1 (stereo not shown)
3 | 48.92 | Cc1c(Cl)cccc1N1C(=O)CC(N2CCCc3ccccc32)C1=O (stereo not shown)
4 | 70.38 | CC1CCN(C2=NN3C(=N)/C(=C\c4ccc(SCc5ccco5)o4)C(=O)N=C3S2)CC1
5 | 55.34 | C/C(=N\OCc1ccc(C(=O)N2CCCCC2)o1)c1cccc(C(F)(F)F)c1
6 | 52.14 | O=C(/C=C/c1ccc(Br)o1)OCC(=O)c1c[nH]c2ccccc12
7 | 48.1 | Cc1cc(NC(=O)/C=C/c2ccco2)n(-c2nc3ccccc3n2Cc2cccc(Oc3ccccc3)c2)n1
8 | 46.24 | COc1ccc(-c2nc3scc(CCNC(=O)/C=C/c4ccco4)n3n2)cc1
9 | 71.24 | Oc1cccnc1NC(c1ccc(F)cc1)c1ccc2cccnc2c1O (stereo not shown)
10 | 48.33 | COc1cc(C(c2nnnn2C2CCCCC2)N2CCc3ccccc3C2)ccc1O (stereo not shown)

The remaining lines, values behind:

Row | Compound | Spec Values
11 | CCSC1=C(C#N)C(=O)NC(c2ccc(N(C)C)cc2)S1 (stereo not shown) | 49.2!
12 | O=C(CCN1C(=O)/C(=C\C=C\c2ccco2)SC1=S)Nc1ccc(C(=O)O)c(O)c1 | 54.54
13 | O=c1c(O)c(-c2ccc(O)c(O)c2)oc2cc(O)cc(O)c12 | 88.65
14 | O=C(/C=C/c1ccco1)NC(=S)Nc1ccccc1C(F)(F)F | 52.25
15 | Cc1ccc(/C=C2\C(=O)Nc3ccc(Br)cc32)o1 [drawing 54] | 58.85
16 | Cc1ccc(/C=C2\C(=O)Nc3ccc(Br)cc32)o1 [drawing 279] | 58.85

target: BCL-XLΔC (Homo sapiens, UniProt Q07817); assay: Competitive fluorescence polarization binding screen, FITC-BAD BH3/BCL-XLΔC; settings: FITC-BAD BH3/BCL-XLΔC interaction
Sequence (Q07817 1-212 limits assumed, stated change not applied): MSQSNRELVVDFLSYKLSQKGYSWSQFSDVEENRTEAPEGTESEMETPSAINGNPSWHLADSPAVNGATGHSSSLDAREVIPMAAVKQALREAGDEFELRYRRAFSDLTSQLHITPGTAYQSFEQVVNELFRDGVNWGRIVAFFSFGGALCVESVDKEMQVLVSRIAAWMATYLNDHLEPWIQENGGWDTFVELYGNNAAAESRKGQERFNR

Row | BCL-XL % Bound [%] | Compound
17 | 105.6 | O=C(/C=C/c1ccc(Br)o1)OCC(=O)c1c[nH]c2ccccc12
18 | 263.7 | COc1ccc(/C=c2\s/c(=C\C(=O)c3ccco3)[nH]c2=O)cc1O

The remaining lines, values behind:

Row | Compound | BCL-XL % Bound [%]
19 | CCSC1=C(C#N)C(=O)NC(c2ccc(O)cc2)S1 (stereo not shown) | 84.82
20 | CCN(CC)c1cc(C)c2cc(NC(=O)/C=C/c3ccco3)ccc2n1 | 79.88

target: T1, MCL-1ΔNΔC (Homo sapiens, UniProt Q07820); assay: Competitive fluorescence polarization binding screen, FITC-MCL-1 SAHB/MCL-1ΔNΔC; design: the C-terminal alpha-helix was deleted from each of these constructs to facilitate protein expression and purification; an additional N-terminal deletion of MCL-1 was performed; GST (N, cleaved yes); made in house; settings: FITC-MCL-1 SAHB/MCL-1ΔNΔC interaction
T1 sequence (Q07820 172-320 limits assumed, stated change not applied): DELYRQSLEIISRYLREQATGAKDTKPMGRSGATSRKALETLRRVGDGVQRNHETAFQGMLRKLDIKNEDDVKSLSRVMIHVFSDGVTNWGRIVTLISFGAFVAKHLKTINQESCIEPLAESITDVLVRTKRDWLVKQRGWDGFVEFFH

Row | MCL-1% Bound [%] | Compound
21 | 14.5 | Cc1ccc2c(c1C)NC(C(=O)O)C1CC=CC21 (stereo not shown)
22 | 11.73 | CCN(CC)c1cc(C)c2cc(NC(=O)/C=C/c3ccco3)ccc2n1
23 | 18.74 | Cc1ccc(/C=C2\C(=O)Nc3ccc(Br)cc32)o1 [drawing 54]

target: T1, MCL-1ΔNΔC; assay: not given; settings: pre-incubation, dilution, re-concentration, FITC-BID BH3 FP

Row | Compound | mode of binding to MCL-1ΔNΔC (reversible/non-covalent vs covalent)
24 | Cc1cc2c(C(C)C)c(O)c(O)c(C=O)c2c(O)c1-c1c(C)cc2c(C(C)C)c(O)c(O)c(C=O)c2c1O [Gossypol] | bound reversibly

same assay, conditions: pre-incubation, dilution, re-concentration, FITC-BID BH3 FP; listed as 1570G15

Row | Compound | mode of binding to MCL-1ΔNΔC (reversible/non-covalent vs covalent)
25 | Cc1cc2c(C(C)C)c(O)c(O)c(C=O)c2c(O)c1-c1c(C)cc2c(C(C)C)c(O)c(O)c(C=O)c2c1O [Gossypol] | engages MCL-1 through non-covalent interactions
